Measured values published in ChEMBL document CHEMBL5634159, “Discovery of novel tumor-targeted near-infrared probes with 6-substituted pyrrolo[2,3-d]pyrimidines as targeting ligands” (Eur J Med Chem, 2023).
Calls of active or inactive are those of the source. No cut-off for these calls is given here.

Tests used:
KB [1] = assay: Binding affinity to Folate receptor in human KB cells assessed as relative fluorescence intensity incubated for 1 hr by flow cytometry analysis; assay type: cell-based
KB [2] = assay: Binding affinity to Folate receptor in human KB cells assessed as relative fluorescence intensity preincubated with compound for 1 hr followed by folic acid addition and measured after 1 hr by flow cytometry analysis; assay type: cell-based; settings: time 2.0 hrs
Folate receptor alpha = Folate receptor alpha (Homo sapiens, UniProt P15328); assay: Binding affinity to Folate receptor alpha in human KB cells assessed as dissociation constant; assay type: cell-based
Sequence of Folate receptor alpha (P15328 whole entry): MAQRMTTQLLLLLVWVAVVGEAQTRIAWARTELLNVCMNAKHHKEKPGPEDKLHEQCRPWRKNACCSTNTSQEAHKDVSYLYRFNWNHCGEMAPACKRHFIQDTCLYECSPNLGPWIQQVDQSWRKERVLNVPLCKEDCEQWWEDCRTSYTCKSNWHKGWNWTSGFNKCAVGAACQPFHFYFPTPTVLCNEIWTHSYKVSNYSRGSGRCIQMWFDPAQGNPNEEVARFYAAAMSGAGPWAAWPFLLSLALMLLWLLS

Folate receptor beta = Folate receptor beta (Mus musculus, UniProt Q05685); assay: Binding affinity to Folate receptor beta in mouse RAW264.7 cells assessed as dissociation constant; assay type: cell-based
Sequence of Folate receptor beta (Q05685 whole entry): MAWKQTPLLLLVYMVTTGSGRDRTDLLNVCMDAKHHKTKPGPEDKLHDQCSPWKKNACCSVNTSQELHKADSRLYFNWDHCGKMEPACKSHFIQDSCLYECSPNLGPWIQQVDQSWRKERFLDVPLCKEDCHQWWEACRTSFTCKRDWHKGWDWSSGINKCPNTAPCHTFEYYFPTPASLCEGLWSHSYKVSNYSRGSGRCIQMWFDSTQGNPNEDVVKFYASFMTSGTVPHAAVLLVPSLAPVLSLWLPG

[3] = Drug uptake in BALB/c nude mouse tumor xenografted with human KB cells assessed as increase in fluorescence signals measured for 2 days; assay type: ADME, tissue-based, Neoplasm; settings: in vivo, 48 h, time 2 day
[4] = Drug uptake in BALB/c nude mouse tumor xenografted with human A549 cells assessed as increase in fluorescence signals measured for 2 days; assay type: ADME, tissue-based, Neoplasm; settings: 48 h, time 2 day
[5] = Drug uptake in BALB/c mouse tumor xenografted with human KB cells at 10 nmol measured for 8 hrs; assay type: ADME, tissue-based, Neoplasm; settings: in vivo
[6] = Drug uptake in BALB/c mouse tumor xenografted with human KB cells at 10 nmol measured for 8 hrs in presence of folic acid; assay type: ADME, tissue-based, Neoplasm; settings: in vivo
[7] = Drug uptake in BALB/c mouse tumor xenografted with human A549 cells at 10 nmol measured for 8 hrs in presence of folic acid; assay type: ADME, tissue-based, Neoplasm
[8] = Ratio of biodistribution in tumor to heart of human KB cell xenografted in BALB/c mouse at 10 nmol measured for 8 hrs; assay type: ADME, organism-based; settings: in vivo
[9] = Ratio of biodistribution in tumor to lung of human KB cell xenografted in BALB/c mouse at 10 nmol measured for 8 hrs; assay type: ADME, organism-based; settings: in vivo
[10] = Ratio of biodistribution in tumor to liver of human KB cell xenografted in BALB/c mouse at 10 nmol measured for 8 hrs; assay type: ADME, organism-based; settings: in vivo
[11] = Half life in BALB/c mouse at 10 nmol measured for 8 hrs; assay type: ADME; settings: in vivo
[12] = Elimination half life in BALB/c mouse at 10 nmol measured for 8 hrs; assay type: ADME; settings: in vivo, read-out: beta t1/2 (converted)
HUVEC = assay: Cytotoxicity against human HUVEC cells assessed as cell growth inhibition incubated for 24 hrs by CCK-8 assay; assay type: toxicity, cell-based
[13] = Acute toxicity in ICR mouse assessed as effect on food intake at 10 micromol/ml measured for 14 days; settings: in vivo, 336 h, dose 10 µmol/ml, time 14 day
[14] = Acute toxicity in ICR mouse assessed as effect on body weight at 10 micromol/ml measured for 14 days; settings: in vivo, 336 h, dose 10 µmol/ml, time 14 day
[15] = Acute toxicity in ICR mouse assessed as animal death at 10 micromol/ml measured for 14 days; settings: in vivo, 336 h, dose 10 µmol/ml, time 14 day
[16] = Acute toxicity in ICR mouse assessed as heart damage at 10 micromol/ml measured for 14 days by H and E staining based analysis; assay type: tissue-based; settings: in vivo, 336 h, dose 10 µmol/ml, time 14 day
[17] = Acute toxicity in ICR mouse assessed as liver damage at 10 micromol/ml measured for 14 days by H and E staining based analysis; assay type: tissue-based; settings: in vivo, 336 h, dose 10 µmol/ml, time 14 day
[18] = Acute toxicity in ICR mouse assessed as spleen damage at 10 micromol/ml measured for 14 days by H and E staining based analysis; assay type: tissue-based; settings: in vivo, 336 h, dose 10 µmol/ml, time 14 day
[19] = Acute toxicity in ICR mouse assessed as lung damage at 10 micromol/ml measured for 14 days by H and E staining based analysis; assay type: tissue-based; settings: in vivo, 336 h, dose 10 µmol/ml, time 14 day
[20] = Acute toxicity in ICR mouse assessed as kidney damage at 10 micromol/ml measured for 14 days by H and E staining based analysis; assay type: tissue-based; settings: in vivo, 336 h, dose 10 µmol/ml, time 14 day
KB [21] = assay: Binding affinity to Folate receptor in human KB cells assessed as increase in fluorescence intensity incubated for 2 hrs by fluorescence microscopic analysis; assay type: cell-based
[22] = Drug uptake in human A549 cells assessed as increase in fluorescence intensity in presence of folic acid by fluorescence microscopic analysis; assay type: ADME, cell-based
[23] = Drug uptake in mouse RAW264.7 cells assessed as increase in fluorescence intensity in presence of folic acid by fluorescence microscopic analysis; assay type: ADME, cell-based
KB [24] = assay: Binding affinity to Folate receptor in human KB cells assessed as relative fluorescence intensity incubated for compound for 1 hr by flow cytometry analysis; assay type: cell-based
[25] = Ex vivo biodistribution in BALB/c mouse tumor of human KB cells expressing folate receptor alpha measured for 8 hrs by imaging analysis; assay type: ADME, organism-based, Neoplasm
[26] = Drug uptake in BALB/c mouse heart xenografted with human KB cells at 10 nmol measured for 8 hrs; assay type: ADME, tissue-based; settings: in vivo
[27] = Drug uptake in BALB/c mouse lung xenografted with human KB cells at 10 nmol measured for 8 hrs; assay type: ADME, tissue-based; settings: in vivo
[28] = Drug uptake in BALB/c mouse liver xenografted with human KB cells at 10 nmol measured for 8 hrs; assay type: ADME, tissue-based; settings: in vivo
[29] = Drug uptake in BALB/c mouse spleen xenografted with human KB cells at 10 nmol measured for 8 hrs; assay type: ADME, tissue-based; settings: in vivo
[30] = Drug uptake in BALB/c mouse stomach xenografted with human KB cells at 10 nmol measured for 8 hrs; assay type: ADME, tissue-based; settings: in vivo
[31] = Drug uptake in BALB/c mouse kidney xenografted with human KB cells at 10 nmol measured for 8 hrs; assay type: ADME, tissue-based; settings: in vivo
[32] = Drug uptake in BALB/c mouse intestine xenografted with human KB cells at 10 nmol measured for 8 hrs; assay type: ADME, tissue-based; settings: in vivo

Row | Compound | Kd (Folate receptor alpha) [nM] | Kd (Folate receptor beta) [nM] | Drug uptake [3] | Drug uptake [25] | Drug uptake [26] | Drug uptake [27] | Drug uptake [28] | Drug uptake [29] | Drug uptake [30] | Drug uptake [31] | Drug uptake [32] | Activity (KB [1]) | Activity (KB [2]) | Activity (HUVEC) | Activity (KB [24]) | other results
1 | CC1(C)C(/C=C/C2=C(Oc3ccc(C[C@H](NC(=O)c4ccc(CCCCc5cc6c(=O)[nH]c(N)nc6[nH]5)cc4)C(=O)O)cc3)C(=C/C=C3/N(CCCCS(=O)(=O)O)c4ccccc4C3(C)C)/CCC2)=[N+](CCCCS(=O)(=O)[O-])c2ccccc21 | 14.2 | 16 | Active | – | – | – | – | – | – | – | – | Active | Active | Non-Toxic | – | Drug uptake [4]: Not Active; Drug uptake [5]: Active; Drug uptake [6]: Not Active; Drug uptake [7]: Not Active; Ratio [8]: 13; Ratio [9]: 8; Ratio [10]: 2; half-life [11]: 15 min; half-life [12]: 60 min; Activity [13]: Non-Toxic; Activity [14]: Non-Toxic; Activity [15]: Non-Toxic; Activity [16]: Non-Toxic; Activity [17]: Non-Toxic; Activity [18]: Non-Toxic; Activity [19]: Non-Toxic; Activity [20]: Non-Toxic
2 | CC1(C)C(/C=C/C2=C(Oc3ccc(C[C@H](NC(=O)c4ccc(NCc5cnc6nc(N)[nH]c(=O)c6n5)cc4)C(=O)O)cc3)C(=C/C=C3/N(CCCCS(=O)(=O)O)c4ccccc4C3(C)C)/CCC2)=[N+](CCCCS(=O)(=O)[O-])c2ccccc21 | 22.1 | 20.9 | Active | – | – | – | – | – | – | – | – | Active | – | Non-Toxic | – | –
3 | CC1(C)C(/C=C/C2=C(Oc3ccc(C[C@H](NC(=O)c4ccc(CCCCc5cc6c(=O)[nH]c(N)nc6[nH]5)s4)C(=O)O)cc3)C(=C/C=C3/N(CCCCS(=O)(=O)O)c4ccccc4C3(C)C)/CCC2)=[N+](CCCCS(=O)(=O)[O-])c2ccccc21 | 10.3 | 11 | Active | – | – | – | Active | – | – | – | – | Active | Active | Non-Toxic | – | –

Continued, in another order:

Row | Kd (Folate receptor alpha) [nM] | Kd (Folate receptor beta) [nM] | Drug uptake [3] | Drug uptake [25] | Drug uptake [26] | Drug uptake [27] | Drug uptake [28] | Drug uptake [29] | Drug uptake [30] | Drug uptake [31] | Drug uptake [32] | Compound | Activity (KB [1]) | Activity (KB [2]) | Activity (HUVEC) | Activity (KB [24]) | other results
4 | 39.8 | 26.1 | Active | Active | Not Active | Not Active | Not Active | Not Active | Not Active | Not Active | Not Active | CC1(C)C(/C=C/C2=C(Oc3ccc(C[C@H](NC(=O)CNC(=O)Cc4cc5c(=O)[nH]c(N)nc5[nH]4)C(=O)O)cc3)C(=C/C=C3/N(CCCCS(=O)(=O)O)c4ccccc4C3(C)C)/CCC2)=[N+](CCCCS(=O)(=O)[O-])c2ccccc21 | – | Active | Non-Toxic | Active | Activity (KB [21]): Active; Drug uptake [22]: Not Active; Drug uptake [23]: Not Active
5 | 61.2 | 47.9 | – | Active | Not Active | Not Active | Not Active | Not Active | Not Active | Not Active | Not Active | CC1(C)C(/C=C/C2=C(SC[C@@H](NC(=O)CC[C@H](NC(=O)CNC(=O)Cc3cc4c(=O)[nH]c(N)nc4[nH]3)C(=O)O)C(=O)O)C(=C/C=C3/N(CCCCS(=O)(=O)O)c4ccccc4C3(C)C)/CCC2)=[N+](CCCCS(=O)(=O)[O-])c2ccccc21 | – | – | Non-Toxic | inactive | –
6 | 81.9 | 58.9 | – | Active | Not Active | Not Active | Not Active | Not Active | Not Active | Not Active | Not Active | CC1(C)C(/C=C/C2=C(SC[C@H](NC(=O)CNC(=O)Cc3cc4c(=O)[nH]c(N)nc4[nH]3)C(=O)O)C(=C/C=C3/N(CCCCS(=O)(=O)O)c4ccccc4C3(C)C)/CCC2)=[N+](CCCCS(=O)(=O)[O-])c2ccccc21 | – | – | Non-Toxic | inactive | –
